PMC8857485, “Prostate secretory protein 94 inhibits sterol binding and export by the mammalian CAP protein CRISP2 in a calcium-sensitive manner” (The Journal of Biological Chemistry, 2022)
Structures can show the parent of a compound that is named as a salt. Where two headings read alike, the source gives them in different places.

Experiments:
CRISP2 Y99P = target: T1, CRISP2 Y99P (Homo sapiens, UniProt P16562, Y99P); experiment: MST binding to CRISP2 single mutant Y99P; parameters: species or system mammalian; conditions: absence of PSP94, read-out: Kd, sterol binding by CRISP2 Y99P
T1 construct: made in house; host or cells: E. coli
Excerpt: This interaction is thus located outside the hydrophobic loop that harbors the sterol-binding CBM. Based on these structural considerations, it is thus not apparent why and how the interaction between PSP94 and CRISP2 would block sterol binding at the CBM. To investigate this question in more detail, we first performed computational docking studies to identify residues in CRISP2 that are critical for the interaction with PSP94. […] Two of these three interacting residues, N97 and L98, are conserved in all three CAP family members tested here, CRISP2, CRISP3, and Pry1 (Fig. 4A). […]
MST experiments were performed to assess protein–protein, protein–lipid, and protein–calcium interactions using a Monolith NT.115 (Nanotemper Technologies). […] The dissociation constant Kd was obtained by plotting the normalized fluorescence (Fnorm) against the logarithm of ligand concentration. […]
Quadruple mutant cells lacking the acyl-CoA synthetases FAA1 and FAA4 and the yeast CAP family members PRY1 and PRY3 (faa1∆ faa4∆ pry1∆ pry3∆) expressing different combinations of plasmid-borne copies of PRY1, CRISP2, and or PSP94, or their respective empty vectors (pRS423 or pRS426) were cultivated overnight. The export of fatty acids into the culture medium was then quantified. […]

CRISP2^L98G Y99P = target: T2, CRISP2^L98G Y99P (Homo sapiens, UniProt P16562, L98G/Y99P); experiment: MST binding to CRISP2 double mutant L98G Y99P; parameters: species or system mammalian
T2 construct: made in house; host or cells: E. coli
T2 sequence (P16562 22-243 L98G/Y99P): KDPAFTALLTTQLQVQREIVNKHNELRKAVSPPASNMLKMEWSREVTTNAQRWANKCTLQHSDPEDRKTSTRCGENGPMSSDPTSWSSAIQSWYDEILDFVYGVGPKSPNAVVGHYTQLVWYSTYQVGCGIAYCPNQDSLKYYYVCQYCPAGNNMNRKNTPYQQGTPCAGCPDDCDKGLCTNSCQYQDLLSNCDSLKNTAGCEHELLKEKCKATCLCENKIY
Procedure: Next, we generated all three double mutant combinations of CRISP2: N97P L98G, N97P Y99P, and L98G Y99P. These three double mutant versions of CRISP2 were again expressed as His-tagged proteins in E. coli and purified, and their capacity to bind sterols in the presence or absence of PSP94 was assessed by MST. […] The capacity of the CRISP2^L98G Y99P double mutant to bind sterols even in the presence of PSP94 was confirmed by the in vivo sterol export assay (Fig. 6, A and B). When expressed in yeast cells, the CRISP2^L98G Y99P double mutant was stably expressed and secreted as monitored by Western blotting (Fig. 6C).
MST experiments were performed to assess protein–protein, protein–lipid, and protein–calcium interactions using a Monolith NT.115 (Nanotemper Technologies). Proteins were labeled using the RED-tris-NTA His tag protein labeling kit. Labeled CAP proteins, 100 nM, were mixed with a serial dilution of unlabeled PSP94, PSP9^F24G, cholesterol sulfate, or calcium chloride, prepared in binding buffer (20 mM Tris pH 7.5, 30 mM NaCl, 0.05% Triton X-100). Samples were loaded into MST standard capillaries, and MST measurements were performed using an 80% laser power setting. The dissociation constant Kd was obtained by plotting the normalized fluorescence (Fnorm) against the logarithm of ligand concentration. Experiments were performed in triplicates, and data were fitted using the Kd model of the MO.Affinity Analysis software (Nanotemper Technologies). For binding inhibition studies, CAP proteins and PSP94 were preincubated for 5 min at 24 °C before performing binding studies with cholesterol sulfate.

T1 sequence (P16562 22-243 Y99P): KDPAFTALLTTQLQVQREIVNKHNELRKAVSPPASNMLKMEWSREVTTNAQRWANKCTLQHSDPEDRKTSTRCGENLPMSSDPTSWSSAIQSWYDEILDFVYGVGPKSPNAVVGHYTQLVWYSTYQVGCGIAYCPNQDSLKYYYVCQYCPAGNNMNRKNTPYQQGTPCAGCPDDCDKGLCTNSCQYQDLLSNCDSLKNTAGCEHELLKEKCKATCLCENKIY

## CC(C)CCC[C@@H](C)[C@H]1CC[C@H]2[C@@H]3CC=C4C[C@@H](OS(=O)(=O)O)CC[C@]4(C)[C@H]3CC[C@]12C [cholesterol sulfate]
CRISP2 Y99P
  Kd: 2500 ± 900 nM
CRISP2^L98G Y99P; +PSP94, read-out: Kd, sterol binding by CRISP2^L98G Y99P in presence of PSP94
  Kd: 500 nM
CRISP2^L98G Y99P; PSP94^F24G preincubated 5 min at 24 °C, read-out: Kd, sterol binding by CRISP2^L98G Y99P in presence of PSP94^F24G
  Kd: 4500 ± 2080 nM
CRISP2^L98G Y99P; absence of PSP94, read-out: Kd, sterol binding by CRISP2^L98G Y99P
  Kd: 2200 ± 1700 nM
